Measurements: paper PMC10096344 (Molecules, 2023)

Key:
[1] = system: P. aeruginosa (ATCC27853) biofilm; assay: Bacterial biofilm formation (FITC staining, crystal violet staining); type: cell-based, Pseudomonas aeruginosa; details: with 10 μg/mL LP4C
Method: The bacterial biofilm growth and measurement was performed according to our previously reported method. Briefly, P. aeruginosa (ATCC27853) was cultured in the tube with nutrient broth containing 2% (w/v) glucose, shaken at 220 rpm for 12 h at 37 °C. The suspension was diluted to 1 × 10^6 CFU/mL and added to 96-well plates, the bacteria was cultured for 24 h at 37 °C for biofilm growth and the planktonic bacterial of each well was removed by PBS rinsing three times. To observe the biofilm formation, the fluorescein isothiocyanate (FITC) was added into the plates and incubated for 2 h at 37 °C; the labeled biofilm was then washed by PBS and visualized under the fluorescence microscopy (Olympus CKX53, Tokyo, Japan). The measurement of biofilm was performed according to the following procedure: the mature biofilm was fixed with 150 μL methanol and left to air dry, then stained with 150 μL of 1% (w/v) crystal violet solution for 15 min at room temperature. The plate was rinsed with PBS three times and 150 μL of glacial acetic acid was added to each well; the optical density was measured at 630 nm optical density using a microplate reader (Bio-Tek ELX800, Berten, USA).

[2] = system: P. aeruginosa (ATCC27853); assay: Anti-bacterial activity, inhibition zone diameter on agar; type: cell-based, Pseudomonas aeruginosa; details: for growth inhibition / bactericidal activity (inhibition zone): reference antibiotic 10 μg/mL
Method: P. aeruginosa (ATCC27853) was cultured in 3 mL LB culture medium, shaken at 220 rpm for 12 h at 37 °C and diluted to 1 × 10^6 CFU/mL. The culture disk was coated with 1% agar, and 100 μL bacterial suspension was added to the agar in the disk evenly. […] LP4C or reference antibiotics were then added in each hole. The disk was cultured for 12–16 h at 37 °C; the result was then observed and the inhibition zone diameter was measured.

[3] = system: P. aeruginosa PAO1 strain; parameters: method as in PMID 21852522; details: cited from earlier work
[4] = supplementation 1, 10 and 100 μM

**Q.** With `O=c1ccn([C@@H]2O[C@H](CO[P@@](=O)(O)O[P@@](=O)(O)OP(=O)(O)O)[C@@H](O)[C@H]2O)c(=O)[nH]1` (stereo in doubt) [UTP, uridine triphosphate, reference compound] as the compound, how does the “reversal of biofilm formation impaired by LP4C” value (shortened to “reversal”) [1, 4] read?
**A.** The value was “could reverse the biofilm formation ability impaired by 10 μg/mL LP4C”.

**Q.** Which “reversal” value [1, 4] does the source give for `O=c1ccn([C@@H]2O[C@H](COP(=O)(O)O)[C@@H](O)[C@H]2O)c(=O)[nH]1` [UMP, uridine monophosphate, reference compound] here?
**A.** The value was “could reverse the biofilm formation ability impaired by 10 μg/mL LP4C”.

**Q.** With `CC(C)(O/N=C(\C(=O)N[C@@H]1C(=O)N2C(C(=O)[O-])=C(C[n+]3ccccc3)CS[C@H]12)c1csc(N)n1)C(=O)O` [ceftazidime] as the compound, how does the “growth inhibition / bactericidal activity (inhibition zone)” value [2] read?
**A.** The value was “no bactericidal activity”.

**Q.** Which zone of inhibition at 10 µg/mL ([2]; Pseudomonas aeruginosa, ATCC27853, 10 μg/mL, value printed in Figure 1A) does the source give for `C[C@@H](O)[C@H]1C(=O)N2C(C(=O)O)=C(SCCN=CN)C[C@H]12` [imipenem] here?
**A.** Its zone of inhibition at 10 µg/mL is 29.4 mm.

**Q.** And the “growth inhibition / bactericidal activity (inhibition zone)” value [2]?
**A.** The value was “could inhibit the growth of P. aeruginosa obviously”.

**Q.** For `CC(C)=CC[C@@H](O)C1=CC(=O)c2c(O)ccc(O)c2C1=O` [shikonin], which “concentration that inhibits biofilm formation” value [3] is on record?
**A.** The value was 200 µM.

**Q.** With `O=c1cc[nH]c(=O)[nH]1` [uracil, reference compound] as the compound, how does the “reversal” value ([1]; supplementation 10 and 100 μM) read?
**A.** Its value is “could reverse the biofilm formation ability impaired by 10 μg/mL LP4C”.
